Source: patent US11337984B2, “Methods for treating, diagnosing and prognosing a haematological malignancy” (Institut de Recerca Contra La Leucèmia Josep Carreras, priority 2014, dated 2022)

What was measured:
[1] = tested on: healthy haematopoietic stem/progenitor cells; experiment: Clonogenic capacity of lineage-depleted umbilical cord blood cells; type: cell-based, human; details: 10 μM for 18 h, then 14 days in methylcellulose
Method: FIG. 11. […] Cells were then cultivated in Methylcellulose supplemented with haematopoietic cytokines for 14 days. The number of colonies obtained was measured by microscopy based on morphological criteria. A. Total number of colonies is represented. CFU: colony-forming units. B. Frequency of each colony subtype is shown (CFU-Mix, Mix lineaged colony; CFU-GM, granulo-monocyte colony; CFU-G, granulocyte colony; CFU-M, monocyte colony; BFU-E erythrocyte blast colony). 4 primary umbilical cord blood samples were analyzed.
Next, lineage-depleted umbilical cord blood cells were treated with Apomorphine or Methiothepin as done above for AML cells. 14 days after plating, colonies were counted by light microscopy based on morphology and cellularity.

[2] = tested on: healthy hematopoietic stem cells; experiment: Secondary transplants of engrafted healthy cells in NSG mice; type: in vivo, mouse
Method: (§1) FIG. 17. Treatments with 5HTR antagonists reduce the leukemia regeneration capacity of primary AML samples in secondary recipient, without affecting normal hematopoiesis. Upper panel. 3-10×10^5 engrafted bone marrow cells from primary transplanted mice were injected intravenously into secondary recipients (conditioned NSG mice) and left untreated for 8 weeks. Bone marrow cells were analyzed as in FIG. 16. Frequency of human CD45 positive cells referred to control is represented. Lower panel. 50×10^3 engrafted human cells were screened for CFUs. The normalized number of CFUs obtained is represented. *p<0.05; ***p<0.005; ****p<0.0001.
(§2) In order to assay the in vivo self-renewal capacity remaining in the engrafted samples, secondary transplants were performed. Less than 35% of AML cells were detected in mice injected with apomorphine- or methiothepin-treated cells (FIG. 17).

MonoMac-1 cells = experiment: In vivo xenotransplantation mouse model (NSG mice injected with MonoMac-1 cells); details: IP every other day, day 7 to 14; apomorphine 5 mg/kg, methiothepin 0.1 mg/kg; versus vehicle
Method: FIG. 15. Treatment with 5HTR1 antagonists reduce AML burden in an in vivo xenotransplantation mouse model. 6-8 week-old NOD.Cg-Prkdc^scid Il2rg^tm1Wj1/SzJ (NSG) mice were myeloablated with busulfan (30 mg/kg IP) at day 0. At day 1, 10^6 MonoMac-1 cells were injected IV. From day 7 to day 14, mice were treated IP every other day with apomorphine (5 mg/kg) or methiothepin (0.1 mg/kg), while control mice were treated with saline vehicle (0.9% NaCl). At day 15, mice were sacrificed and their bones (iliac crests, femurs and tibias) were harvested and analyzed for the presence of human cells. Bone marrow samples were measured by flow cytometry. Frequency of human CD45 positive cells (upper panel) and total human CD45 positive cells (lower panel) in BM refer to control. Bars represent the mean value. Error bars represent SEM. **p<0.01; ***p<0.001.
Leukemia cells mainly reside in the bone marrow niche where the stroma cell compartment provides paracrine signaling that strongly mediates their survival and proliferation and protects them from apoptosis ( ). Accordingly, conditioned immunodeficient NOD.Cg-Prkdc^scid Il2rg^tm1Wj1/SzJ (NSG) mice (Sanchez et al Leukemia. 2009 November; 23(11):2109-17) were transplanted with human AML cells and left for 7 days for the leukemia to be established. […]

AML cells = experiment: CFU assay of engrafted AML samples; type: cell-based; details: engrafted human cells from primary transplanted mice
Method: as §1, §2

[3] = tested on: lineage-depleted UCB cells; experiment: Engraftment of ex vivo treated lineage-depleted UCB cells in NSG mice; set-up: species or system mouse; details: ex vivo 10 μM for 18 h; 8 weeks after transplantation
Method: FIG. 16. 5HTR antagonist treatment reduces the leukemia regeneration capacity of primary AML cells, whilst sparing healthy hematopoietic stem/progenitor cells. 1-10×10^6 primary AML patient cells or 10-14×10^4 lineage-depleted CB cells were ex vivo treated (10 μM apomorphine, 10 μM methiothepin or vehicle control) for 18 h in IMDM supplemented with 5% heat-inactivated fetal bovine serum and hematopoietic cytokines. Cells were injected IV in previously busulfan (30 mg/kg)-conditioned NSG mice and left 8 weeks untreated. Mice were sacrificed and their bones (iliac crests, femurs and tibias) were harvested and analyzed for the presence of human leukemia (upper panel) or healthy blood (lower panel) cells by flow cytometry. Four AML patient samples and three umbilical cord blood (UCB) samples were tested. *p<0.05; **p<0.01.
Leukemia-initiating cells (LIC) or LSCs are responsible for the engraftment of AML cells in xenograft mouse models and are thought to initiate and maintain the disease in humans. Primary AML patient samples were treated ex vivo with 5HTR antagonists for 18 h and transplanted into conditioned immunodeficient NSG mice. Eight weeks after transplantation, murine bone marrow was analyzed for the presence of human AML cells.

[4] = tested on: HL-60, KG-1, MonoMac-1 and Kasumi-1 AML cell lines; experiment: Differentiation-associated surface markers on AML cell lines by flow cytometry; type: cell-based, human; details: 0.1, 1 and 10 μM, 72 h; all AML cell lines
Method: FIG. 5. […] The surface expression of CD11c, CD11b and CD14 was detected by flow cytometry. […] MFI: Mean Fluorescence Intensity.
HL-60, KG-1, MonoMac-1 and Kasumi-1 AML cell lines were treated with Apomorphine and Methiothepin at different concentrations for 72 h as described above. The expression of differentiation-associated surface markers was measured by flow cytometry.

primary AML samples = experiment: Clonogenic capacity (CFU-B) of primary AML samples in methylcellulose; type: cell-based, human; details: 10 μM for 18 h, then 14 days in methylcellulose
Method: FIG. 10. The clonogenic capacity of primary AML samples is reduced upon 5HTR antagonist treatment. […] Cells were then cultivated in Methylcellulose supplemented with hematopoietic cytokines for 14 days. The number of CFU-B obtained was measured by microscopy based on morphological criteria. 7 primary AML blood samples were analyzed. Each symbol represents a specific patient sample. Lines represent the median. *p<0.05. CFU-B: Blast colony-forming units.
Taking into account that 5HTR antagonists reduced the cell viability of the most primitive AML population, the clonogenic capacity upon treatment was investigated. Primary patient AML samples were cultured in the presence of Apomorphine and Methiothepin for 18 h and plated in a semi-solid methylcellulose media for 14 days in the presence of instructive cytokines at a concentration of fifty thousand cells per mL. Colonies were counted by light microscopy based on morphology and cellularity.

CN1CCc2cccc3c2[C@H]1Cc1ccc(O)c(O)c1-3 [Apomorphine, (6aR)-6-methyl-5,6,6a,7-tetrahydro-4H-dibenzo[de,g]quinoline-10,11-diol]
clonogenic capacity of healthy haematopoietic stem/progenitor cells (total colonies, frequency of CFU subtypes) [1]: None of the 5HTR antagonists affected the clonogenic capacity
self-renewal and differentiation capacity of healthy hematopoietic stem cells in secondary transplants [2]: retained their self-renewal and differentiation capacity
AML burden in bone marrow (MonoMac-1 cells): significant reduction in AML burden
clonogenic capacity of engrafted AML samples (CFU assays) (AML cells): significantly reduced
normal hematopoietic regeneration capacity of lineage-depleted UCB cells [3]: negligible effect
expression of differentiation-associated surface markers CD11c, CD11b and CD14 [4]: induced the expression of CD11c, CD11b and CD14
clonogenic capacity of primary AML samples (number of CFU-B) (primary AML samples): reduced the clonogenic capacity
